In patent US11053204B2, “Pyrimidinyloxy benzene derivatives as herbicides” (FMC Corporation, priority 2015, dated 2021):

Tests used:
Format in all cases: in vivo
[1] = tested on: johnsongrass (Sorghum halepense); experiment: Test C preemergence, plant response rating
kochia (Kochia scoparia) = experiment: Test C preemergence, plant response rating
[2] = tested on: wild poinsettia (Euphorbia heterophylla); experiment: Test C preemergence, plant response rating
[3] = tested on: pigweed, palmer (palmer pigweed, Amaranthus palmeri); experiment: Test C preemergence, plant response rating
[4] = tested on: oat, wild (wild oat Avena fatua); experiment: Test C preemergence, plant response rating
[5] = tested on: Canada thistle (Cirsium arvense); experiment: Test C postemergence, plant response rating; conditions: for Canada Thistle plant response rating: scale 0 to 100 (0 no effect, 100 complete control)
Method in brief: (§1)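 After sowing in loam–sand blend or silt loam, pots were sprayed preemergence; separately grown 1- to 4-leaf plants were sprayed postemergence. Following 13 to 15 d under greenhouse conditions, injury was rated visually on a 0 to 100 scale.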

[6] = tested on: surinam grass (Brachiaria decumbens); experiment: Test C postemergence, plant response rating
Method in brief: as §1

[7] = tested on: field violet (Viola arvensis); experiment: Test C postemergence, plant response rating; conditions: for Field Violet plant response rating: scale 0 to 100 (0 no effect, 100 complete control)
Method in brief: as §1

[8] = tested on: field poppy (Papaver rhoeas); experiment: Test C postemergence, plant response rating; conditions: for Field Poppy plant response rating: scale 0 to 100 (0 no effect, 100 complete control)
Method in brief: as §1

[9] = tested on: pigweed, palmer (palmer pigweed, Amaranthus palmeri); experiment: Test C postemergence, plant response rating; conditions: for Pigweed, Palmer plant response rating: scale 0 to 100 (0 no effect, 100 complete control)
Method in brief: as §1

[10] = tested on: buckwheat, wild (wild buckwheat, Polygonum convolvulus); experiment: Test C postemergence, plant response rating; conditions: for Buckwheat, Wild plant response rating: scale 0 to 100 (0 no effect, 100 complete control)
Method in brief: as §1

[11] = tested on: geranium, cutleaf (cutleaf geranium, Geranium dissectum); experiment: Test C postemergence, plant response rating; conditions: for Geranium, Cutleaf plant response rating: scale 0 to 100 (0 no effect, 100 complete control)
Method in brief: as §1

[12] = tested on: johnsongrass (Sorghum halepense); experiment: Test C postemergence, plant response rating; conditions: for Johnsongrass plant response rating: scale 0 to 100 (0 no effect, 100 complete control)
Method in brief: as §1

[13] = tested on: nightshade (eastern black nightshade, Solanum ptycanthum); experiment: Test C postemergence, plant response rating; conditions: for Nightshade plant response rating: scale 0 to 100 (0 no effect, 100 complete control)
Method in brief: as §1

[14] = tested on: speedwell (bird's-eye speedwell, Veronica persica); experiment: Test C postemergence, plant response rating; conditions: for Speedwell plant response rating: scale 0 to 100 (0 no effect, 100 complete control)
Method in brief: as §1

[15] = tested on: windgrass (Apera spica-venti); experiment: Test C postemergence, plant response rating
Method in brief: as §1

[16] = tested on: wild poinsettia (Euphorbia heterophylla); experiment: Test C postemergence, plant response rating; conditions: for Poinsettia, Wild plant response rating: scale 0 to 100 (0 no effect, 100 complete control)
Method in brief: as §1

[17] = tested on: wild mustard (Sinapis arvensis); experiment: Test C postemergence, plant response rating; conditions: for Mustard, Wild plant response rating: scale 0 to 100 (0 no effect, 100 complete control)
Method in brief: as §1

[18] = tested on: surinam grass (Brachiaria decumbens); experiment: Test C preemergence, plant response rating
[19] = tested on: galium (catchweed bedstraw, Galium aparine); experiment: Test C preemergence, plant response rating
[20] = 125 g ai/ha, scale 0 to 100 (0 no effect, 100 complete control)

CCCCC(=O)c1c(Oc2ncc(Cl)cn2)cccc1C(F)(F)F [Compound 130]
Plant response rating, Johnsongrass ([1]; 31 g ai/ha, scale 0 to 100): 10 | Plant response rating, Johnsongrass ([1]; 62 g ai/ha, scale 0 to 100): 70 | Plant response rating, Johnsongrass ([1]; 125 g ai/ha, scale of 0 to 100): 85 | Plant response rating, Kochia (kochia (Kochia scoparia); 31 g ai/ha, scale 0 to 100): 65 | Plant response rating, Kochia (kochia (Kochia scoparia); 62 g ai/ha, scale 0 to 100): 65 | Plant response rating, Kochia (kochia (Kochia scoparia); 125 g ai/ha, scale of 0 to 100): 98 | Plant response rating, Poinsettia, Wild ([2]; 31 g ai/ha, scale 0 to 100): 0 | Plant response rating, Poinsettia, Wild ([2]; 62 g ai/ha, scale 0 to 100): 10 | Plant response rating, Poinsettia, Wild ([2]; 125 g ai/ha, scale of 0 to 100): 45 | Plant response rating, Pigweed, Palmer ([3]; 31 g ai/ha, scale 0 to 100): 75 | Plant response rating, Pigweed, Palmer ([3]; 62 g ai/ha, scale 0 to 100): 100 | Plant response rating, Pigweed, Palmer ([3]; 125 g ai/ha, scale of 0 to 100): 85 | Plant response rating, Oat, Wild ([4]; 31 g ai/ha, scale 0 to 100): 15 | Plant response rating, Oat, Wild ([4]; 62 g ai/ha, scale 0 to 100): 35 | Plant response rating, Oat, Wild ([4]; 125 g ai/ha, scale of 0 to 100): 60 | Plant response rating, Canada Thistle ([5]; 16 g ai/ha, scale of 0 to 100): 75 | Plant response rating, Canada Thistle ([5]; 31 g ai/ha, scale 0 to 100): 75 | Canada Thistle plant response rating ([5]; 62 g ai/ha): 98 | Canada Thistle plant response rating ([5]; 125 g ai/ha): 98 | Plant response rating, Surinam Grass ([6]; 16 g ai/ha, scale of 0 to 100): 10 | Plant response rating, Surinam Grass ([6]; 31 g ai/ha, scale 0 to 100): 10 | Surinam Grass plant response rating [6, 20]: 20 | Plant response rating, Field Violet ([7]; 16 g ai/ha, scale of 0 to 100): 80 | Plant response rating, Field Violet ([7]; 31 g ai/ha, scale 0 to 100): 85 | Field Violet plant response rating ([7]; 62 g ai/ha): 95 | Field Violet plant response rating ([7]; 125 g ai/ha): 100 | Plant response rating, Field Poppy ([8]; 16 g ai/ha, scale of 0 to 100): 100 | Plant response rating, Field Poppy ([8]; 31 g ai/ha, scale 0 to 100): 100 | Field Poppy plant response rating ([8]; 62 g ai/ha): 100 | Field Poppy plant response rating ([8]; 125 g ai/ha): 100 | Plant response rating, Pigweed, Palmer ([9]; 16 g ai/ha, scale of 0 to 100): 35 | Plant response rating, Pigweed, Palmer ([9]; 31 g ai/ha, scale 0 to 100): 65 | Pigweed, Palmer plant response rating ([9]; 62 g ai/ha): 45 | Pigweed, Palmer plant response rating ([9]; 125 g ai/ha): 65 | Plant response rating, Buckwheat, Wild ([10]; 16 g ai/ha, scale of 0 to 100): 35 | Plant response rating, Buckwheat, Wild ([10]; 31 g ai/ha, scale 0 to 100): 90 | Buckwheat, Wild plant response rating ([10]; 62 g ai/ha): 75 | Buckwheat, Wild plant response rating ([10]; 125 g ai/ha): 80 | Plant response rating, Geranium, Cutleaf ([11]; 16 g ai/ha, scale of 0 to 100): 25 | Plant response rating, Geranium, Cutleaf ([11]; 31 g ai/ha, scale 0 to 100): 35 | Geranium, Cutleaf plant response rating ([11]; 62 g ai/ha): 45 | Geranium, Cutleaf plant response rating ([11]; 125 g ai/ha): 60 | Plant response rating, Johnsongrass ([12]; 16 g ai/ha, scale of 0 to 100): 5 | Plant response rating, Johnsongrass ([12]; 31 g ai/ha, scale 0 to 100): 5 | Johnsongrass plant response rating ([12]; 62 g ai/ha): 10 | Johnsongrass plant response rating ([12]; 125 g ai/ha): 15 | Plant response rating, Nightshade ([13]; 16 g ai/ha, scale of 0 to 100): 75 | Plant response rating, Nightshade ([13]; 31 g ai/ha, scale 0 to 100): 80 | Nightshade plant response rating ([13]; 62 g ai/ha): 85 | Nightshade plant response rating ([13]; 125 g ai/ha): 90 | Plant response rating, Speedwell ([14]; 16 g ai/ha, scale of 0 to 100): 80 | Plant response rating, Speedwell ([14]; 31 g ai/ha, scale 0 to 100): 85 | Speedwell plant response rating ([14]; 62 g ai/ha): 98 | Speedwell plant response rating ([14]; 125 g ai/ha): 98 | Plant response rating, Windgrass ([15]; 16 g ai/ha, scale of 0 to 100): 10 | Plant response rating, Windgrass ([15]; 31 g ai/ha, scale 0 to 100): 15 | Windgrass plant response rating [15, 20]: 35 | Plant response rating, Poinsettia, Wild ([16]; 16 g ai/ha, scale of 0 to 100): 55 | Plant response rating, Poinsettia, Wild ([16]; 31 g ai/ha, scale 0 to 100): 70 | Poinsettia, Wild plant response rating ([16]; 62 g ai/ha): 60 | Poinsettia, Wild plant response rating ([16]; 125 g ai/ha): 75 | Plant response rating, Mustard, Wild ([17]; 16 g ai/ha, scale of 0 to 100): 98 | Plant response rating, Mustard, Wild ([17]; 31 g ai/ha, scale 0 to 100): 90 | Mustard, Wild plant response rating ([17]; 62 g ai/ha): 100 | Mustard, Wild plant response rating ([17]; 125 g ai/ha): 100 | Plant response rating, Surinam Grass ([18]; 31 g ai/ha, scale 0 to 100): 50 | Plant response rating, Surinam Grass ([18]; 62 g ai/ha, scale 0 to 100): 65 | Plant response rating, Surinam Grass ([18]; 125 g ai/ha, scale of 0 to 100): 80 | Plant response rating, Galium ([19]; 31 g ai/ha, scale 0 to 100): 50 | Plant response rating, Galium ([19]; 62 g ai/ha, scale 0 to 100): 90 | Plant response rating, Galium ([19]; 125 g ai/ha, scale of 0 to 100): 90
